{"source": "patent US20120101157A1", "about": "“4,5-Diamino-3-Halo-2-Hydroxybenzoic Acid Derivatives and Preparations Thereof” (NATIONAL DEFENSE MEDICAL CENTER, priority 2010, published 2012)", "key": {"H1N1 virus": {"tested_on": "H1N1 virus", "assay": "microbe, parasite or virus in culture", "type": "cell-based", "details": "for MIC: Influenza A virus, read-out: MIC (minimum inhibitory concentration, cell survival rate >75%); for anti-H1N1 / anti-influenza activity (in words) / SI (selective index=CC50/MIC): H1N1 in MDCK cells"}, "in vitro": {"assay": "in vitro", "details": "dog"}, "H5N1": {"tested_on": "H5N1", "details": "read-out: EC50 (50% effective concentration); H5N1, according to previous studies; cited from earlier work"}, "[1]": {"details": "H1N1 at 0.01 MOI in MDCK cells, 48 h, MTT"}}, "note": "“Also recorded” adds a separate entry of the source. Where two headings read alike, the source gives them in different places."}
{"smiles": "Nc1ccc(C(=O)O)c(O)c1", "note": "[PAS, p-aminosalicylic acid, reference compound]", "values": [{"measurement": "MIC", "setting": "H1N1 virus; H1N1, 48 h", "value": "> 100", "unit": "µg/mL"}, {"measurement": "CC50", "setting": "in vitro", "value": "> 100", "unit": "µg/mL"}]}
{"smiles": "NC(=O)c1ncn([C@@H]2O[C@H](CO)[C@@H](O)[C@H]2O)n1", "note": "[Ribavirin, reference compound]", "values": [{"measurement": "MIC", "setting": "H1N1 virus; H1N1, 48 h", "value": 1.56, "unit": "µg/mL"}, {"measurement": "EC50", "setting": "H5N1", "value": "6 to 22", "unit": "µM"}]}
{"smiles": "CC(=O)Nc1cc(O)c(C(=O)O)cc1N", "note": "[compound 6a]", "values": [{"measurement": "anti-H1N1 / anti-influenza activity (in words)", "setting": "H1N1 virus", "value": "better anti-H1N1 activity; also recorded: effectively inhibit influenza viral activity"}, {"measurement": "MIC", "setting": "H1N1 virus; [1]", "value": 50, "unit": "µg/mL"}, {"measurement": "melting point", "value": "295 to 297", "unit": "°C"}, {"measurement": "CC50", "setting": "in vitro", "value": "> 100", "unit": "µg/mL"}]}
{"smiles": "COC(=O)c1cc(N)c(NC(C)=O)cc1O", "note": "[compound 6b]", "values": [{"measurement": "anti-H1N1 / anti-influenza activity (in words)", "setting": "H1N1 virus", "value": "better anti-H1N1 activity; also recorded: effectively inhibit influenza viral activity; also recorded: preferred anti-influenza activity"}, {"measurement": "MIC", "setting": "H1N1 virus; [1]", "value": 1.56, "unit": "µg/mL"}, {"measurement": "melting point", "value": "204 to 206", "unit": "°C"}, {"measurement": "CC50", "setting": "in vitro", "value": "> 100", "unit": "µg/mL"}]}
{"smiles": "CCCC(=O)Nc1cc(O)c(C(=O)OCC)cc1N", "note": "[compound 6e]", "values": [{"measurement": "SI (selective index=CC50/MIC)", "setting": "H1N1 virus", "value": ">64"}, {"measurement": "anti-H1N1 / anti-influenza activity (in words)", "setting": "H1N1 virus", "value": "better anti-H1N1 activity; also recorded: effectively inhibit influenza viral activity; also recorded: preferred anti-influenza activity"}, {"measurement": "MIC", "setting": "H1N1 virus; [1]", "value": 1.56, "unit": "µg/mL"}, {"measurement": "melting point", "value": "135 to 137", "unit": "°C"}, {"measurement": "CC50", "setting": "in vitro", "value": "> 100", "unit": "µg/mL"}]}
{"smiles": "COC(=O)c1cc(N)c(NC(C)=O)c(Br)c1O", "note": "[compound 6f, methyl 4-(acetamido)-5-amino-3-bromo-2-hydroxybenzoate]", "values": [{"measurement": "SI (selective index=CC50/MIC)", "setting": "H1N1 virus", "value": ">128"}, {"measurement": "anti-H1N1 / anti-influenza activity (in words)", "setting": "H1N1 virus", "value": "better anti-H1N1 activity; also recorded: effectively inhibit influenza viral activity; also recorded: preferred anti-influenza activity"}, {"measurement": "MIC", "setting": "H1N1 virus; [1]", "value": 0.78, "unit": "µg/mL"}, {"measurement": "melting point", "value": "217 to 219", "unit": "°C"}, {"measurement": "CC50", "setting": "in vitro", "value": "> 100", "unit": "µg/mL"}]}
{"smiles": "CC(=O)Nc1cc(O)c(C(=O)O)cc1NC(=N)N", "note": "[compound 7a, 4-(acetamido)-5-guanidino-2-hydroxybenzoic acid]", "values": [{"measurement": "anti-H1N1 / anti-influenza activity (in words)", "setting": "H1N1 virus", "value": "better anti-H1N1 activity; also recorded: effectively inhibit influenza viral activity"}, {"measurement": "MIC", "setting": "H1N1 virus; [1]", "value": 25, "unit": "µg/mL"}, {"measurement": "melting point", "value": "334 to 357", "unit": "°C"}, {"measurement": "CC50", "setting": "in vitro", "value": "> 100", "unit": "µg/mL"}]}
{"smiles": "COC(=O)c1cc(NC(=N)N)c(NC(C)=O)cc1O", "note": "[compound 7b, methyl 4-(acetamido)-5-guanidino-2-hydroxybenzoate]", "values": [{"measurement": "anti-H1N1 / anti-influenza activity (in words)", "setting": "H1N1 virus", "value": "better anti-H1N1 activity; also recorded: effectively inhibit influenza viral activity"}, {"measurement": "MIC", "setting": "H1N1 virus; [1]", "value": 25, "unit": "µg/mL"}, {"measurement": "melting point", "value": "233 to 234", "unit": "°C"}, {"measurement": "CC50", "setting": "in vitro", "value": "> 100", "unit": "µg/mL"}]}
{"smiles": "CCCC(=O)Nc1cc(O)c(C(=O)OCC)cc1NC(=N)N", "note": "[compound 7e, ethyl 4-(butyramido)-5-guanidino-2-hydroxybenzoate]", "values": [{"measurement": "anti-H1N1 / anti-influenza activity (in words)", "setting": "H1N1 virus", "value": "no inhibiting activity"}, {"measurement": "MIC", "setting": "H1N1 virus; [1]", "value": "> 100", "unit": "µg/mL"}, {"measurement": "CC50", "setting": "in vitro", "value": "> 100", "unit": "µg/mL"}]}
{"smiles": "COC(=O)c1cc(NC(=N)N)c(NC(C)=O)c(Br)c1O", "note": "[compound 7f, methyl 4-(acetamido)-3-bromo-5-guanidino-2-hydroxybenzoate]", "values": [{"measurement": "anti-H1N1 / anti-influenza activity (in words)", "setting": "H1N1 virus", "value": "no inhibiting activity"}, {"measurement": "MIC", "setting": "H1N1 virus; [1]", "value": "> 100", "unit": "µg/mL"}, {"measurement": "melting point", "value": "238 to 240", "unit": "°C"}, {"measurement": "CC50", "setting": "in vitro", "value": "> 100", "unit": "µg/mL"}]}
{"smiles": "CC(=O)Nc1c(N)cc(C(=O)O)c(O)c1Br", "note": "[compound 8, 4-(acetamido)-5-amino-3-bromo-2-hydroxybenzoic acid]", "values": [{"measurement": "anti-H1N1 / anti-influenza activity (in words)", "setting": "H1N1 virus", "value": "better anti-H1N1 activity; also recorded: effectively inhibit influenza viral activity; also recorded: preferred anti-influenza activity"}, {"measurement": "MIC", "setting": "H1N1 virus; [1]", "value": 1.56, "unit": "µg/mL"}, {"measurement": "melting point", "value": "210 to 211", "unit": "°C"}, {"measurement": "CC50", "setting": "in vitro", "value": "> 100", "unit": "µg/mL"}]}
